# Biological target: T1, recombinant human androgen receptor (hAR) (Homo sapiens, UniProt P10275)
# T1 construct: made in house; host or cells: baculovirus/Sf9 insect cells (crude extract)
# T1 sequence (P10275 1-920): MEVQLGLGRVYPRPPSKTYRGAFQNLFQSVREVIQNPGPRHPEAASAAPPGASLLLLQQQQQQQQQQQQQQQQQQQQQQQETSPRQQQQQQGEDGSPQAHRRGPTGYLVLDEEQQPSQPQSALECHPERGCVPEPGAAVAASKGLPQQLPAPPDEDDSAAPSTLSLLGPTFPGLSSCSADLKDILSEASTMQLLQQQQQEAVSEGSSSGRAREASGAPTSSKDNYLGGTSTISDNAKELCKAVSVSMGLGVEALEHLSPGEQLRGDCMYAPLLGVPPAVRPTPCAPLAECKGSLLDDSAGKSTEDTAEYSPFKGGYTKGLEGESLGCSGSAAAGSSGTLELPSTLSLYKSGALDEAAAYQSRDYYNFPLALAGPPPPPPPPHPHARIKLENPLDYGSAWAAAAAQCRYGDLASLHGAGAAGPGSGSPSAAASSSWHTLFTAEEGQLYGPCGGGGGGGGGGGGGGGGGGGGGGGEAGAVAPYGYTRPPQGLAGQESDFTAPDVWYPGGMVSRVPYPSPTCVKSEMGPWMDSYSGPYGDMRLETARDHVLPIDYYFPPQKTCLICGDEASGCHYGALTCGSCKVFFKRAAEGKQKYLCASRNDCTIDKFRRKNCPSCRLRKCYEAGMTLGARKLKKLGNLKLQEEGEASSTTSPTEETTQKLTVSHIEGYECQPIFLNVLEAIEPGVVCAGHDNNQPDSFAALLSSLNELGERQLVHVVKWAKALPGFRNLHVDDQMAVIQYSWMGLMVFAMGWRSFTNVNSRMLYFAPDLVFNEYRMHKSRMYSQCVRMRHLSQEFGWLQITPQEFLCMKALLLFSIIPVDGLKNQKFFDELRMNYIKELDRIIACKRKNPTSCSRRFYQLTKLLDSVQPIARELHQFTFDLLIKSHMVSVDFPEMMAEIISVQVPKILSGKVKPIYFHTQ
# Test: Human androgen receptor binding analysis (3H-DHT competitive binding)
# Description: The following is a brief description of the assay that determines the affinity of a compound for the recombinant human androgen receptor (hAR). Competitive binding analysis is performed on baculovirus/Sf9 generated hAR extracts in the presence or absence of differing concentrations of drug and a fixed concentration of ^3H-dihydrotestosterone (^3H-DHT) as tracer. This binding assay method is a modification of a protocol previously described (Chang, et. al. J. Steroid Biochem. 20(1):11-17 1984). Briefly, progressively decreasing concentrations of compounds are incubated in the presence of hAR extract (Chang et al. P.N.A.S. Vol. 89, pp. 5546-5950, 1992), hydroxylapatite and 1 nM ^3H-DHT for one hour at 4° C. Subsequently, the binding reactions are washed three times to completely remove excess unbound ^3H-DHT. hAR bound ^3H-DHT levels are determined in the presence of compounds (=competitive binding) and compared to levels bound when no competitor is present (=maximum binding). Compound binding affinity to the hAR is expressed as the concentration of compound at which one half of the maximum binding is inhibited (the IC50).
row,Compound,IC50
1,"CC[C@H]1CCCCN1c1cc(F)c(C#N)c(F)c1 [Example 2, 4-(2-(S)-Ethyl-piperidin-1-yl)-2,6-difluoro-benzonitrile]",1.15 nM
2,"CC[C@H]1CCCCN1c1ccc(C#N)c(Cl)c1 [Example 3, 2-Chloro-4-(2-(S)-ethyl-piperidin-1-yl)-benzonitrile]",3.67 nM
3,"CC[C@H]1CCCCN1c1ccc(C#N)c(C#N)c1 [Example 4, 4-(2-(S)-Ethyl-piperidin-1-yl)-phthalonitrile]",7.75 nM
4,"CCC1CCCCN1c1ccc(C#N)c(C#N)c1 (centres unmarked) [Example 5, 4-(2-Ethyl-piperidin-1-yl)-phthalonitrile]",5.35 nM
5,"CCC1CCCCN1c1ccc(C#N)c(C(F)(F)F)c1 (centres unmarked) [Example 6, 4-(2-Ethyl-piperidin-1-yl)-2-trifluoromethyl-benzonitrile]",1.83 nM
6,"CC[C@@H](C)N(CC)c1ccc(C#N)c(Cl)c1 [Example 8, 4-((R)-sec-Butyl-ethyl-amino)-2-chloro-benzonitrile]",1.4 nM
7,"CC[C@@H](C)N(C)c1ccc(C#N)c(Cl)c1 [Example 9, 4-((R)-sec-Butyl-methyl-amino)-2-chloro-benzonitrile]",3.63 nM
8,"CCCN(c1ccc(C#N)c(Cl)c1)[C@H](C)CC [Example 10, 4-((R)-sec-Butyl-propyl-amino)-2-chloro-benzonitrile]",3.28 nM
9,"CCCN(c1ccc(C#N)c(C#N)c1)[C@H](C)CC [Example 11, 4-((R)-sec-Butyl-propyl-amino)-phthalonitrile]",8 nM
10,"CC[C@@H](C)N(CC)c1ccc(C#N)c(C(F)(F)F)c1 [Example 12, 4-((R)-sec-Butyl-ethyl-amino)-2-trifluoromethyl-benzonitrile]",3.21 nM
11,"CC[C@@H](C)N(C)c1ccc(C#N)c(C#N)c1 [Example 13, 4-((R)-sec-Butyl-methyl-amino)-phthalonitrile]",2.9 nM
12,CC[C@@H](C)N(CC)c1ccc(C#N)c(C#N)c1 [Example 14],3.8 nM
13,"CCCN(CCC)c1ccc(C#N)c(C(F)(F)F)c1 [Example 15, 4-Dipropylamino-2-trifluoromethyl-benzonitrile]",1.68 nM
14,"CCN(c1ccc(C#N)c(C#N)c1)C(C)C [Example 16, 4-(Ethyl-isopropyl-amino)-phthalonitrile]",3.06 nM
15,"CCC(C)N(C)c1ccc(C#N)c(C(F)(F)F)c1 (centres unmarked) [Example 17, 4-(sec-Butyl-methyl-amino)-2-trifluoromethyl-benzonitrile]",3.99 nM
16,"CCCN(c1ccc(C#N)c(C#N)c1)C(C)CC (centres unmarked) [Example 18, 4-(sec-Butyl-propyl-amino)-phthalonitrile]",2.49 nM
17,"CCCN(CCC)c1ccc(C#N)c(C#N)c1 [Example 19, 4-Dipropylamino-phthalonitrile]",6.44 nM
18,"CCN(CC)c1ccc(C#N)c(C(F)(F)F)c1 [Example 20, 4-Diethylamino-2-trifluoromethyl-benzonitrile]",2.62 nM
19,"CCC(C)N(CC)c1ccc(C#N)c(C(F)(F)F)c1 (centres unmarked) [Example 21, 4-(sec-Butyl-ethyl-amino)-2-trifluoromethyl-benzonitrile]",1.71 nM
20,"CCCN(CC)c1ccc(C#N)c(Cl)c1 [Example 22, 2-Chloro-4-(ethyl-propyl-amino)-benzonitrile]",5.4 nM
21,"CC(C)N(C)c1ccc(C#N)c(Cl)c1 [Example 23, 2-Chloro-4-(isopropyl-methyl-amino)-benzonitrile]",4.21 nM
22,"CC(C)[C@@H](C)N(C)c1ccc(C#N)c(Cl)c1 [Example 25, 2-Chloro-4-[(1-(R), 2-dimethyl-propyl)-methyl-amino]-benzonitrile]",45.6 nM
23,CC[C@H](C)N(C)c1ccc(C#N)c(C(F)(F)F)c1 [Example 26],5.47 nM
24,"CC[C@H](C)N(CC)c1ccc(C#N)c(C(F)(F)F)c1 [Example 27, 4-((S)-sec-Butyl-ethyl-amino)-2-trifluoromethyl-benzonitrile]",7.32 nM

row,Compound,IC50
1,"CC1CCCN1c1ccc(C#N)c(C(F)(F)F)c1 (centres unmarked) [Example 28, 4-(2-Methyl-pyrrolidin-1-yl)-2-trifluoromethyl-benzonitrile]",1.5 nM
2,"CCCC1CCCCN1c1ccc(C#N)c(C(F)(F)F)c1 (centres unmarked) [Example 30, 4-(2-Propyl-piperidin-1-yl)-2-trifluoromethyl-benzonitrile]",2.33 nM
3,"CCC1CC(CO)CCN1c1ccc(C#N)c(C(F)(F)F)c1 (centres unmarked) [Example 31, 4-(2-Ethyl-4-hydroxymethyl-piperidin-1-yl)-2-trifluoromethyl-benzonitrile]",9.63 nM
4,"CCCN(c1ccc(C#N)c(C(F)(F)F)c1)[C@H](C)CC [Example 32, 4-((R)-sec-Butyl-propyl-amino)-2-trifluoromethyl-benzonitrile]",5.97 nM
5,"C=CCN(C)c1ccc(C#N)c(C(F)(F)F)c1 [Example 33, 4-(Allyl-methyl-amino)-2-trifluoromethyl-benzonitrile]",3.82 nM
6,"CC1CCCCN1c1ccc(C#N)c(C(F)(F)F)c1 (centres unmarked) [Example 34, 4-(2-Methyl-piperidin-1-yl)-2-trifluoromethyl-benzonitrile]",24.8 nM
7,"CCOC[C@H]1CCCN1c1ccc(C#N)c(C(F)(F)F)c1 [Example 35, 4-(2(R)-(Ethoxy-methyl)-pyrrolidin-1-yl)-2-trifluoromethyl-benzonitrile]",2.07 nM
8,"N#Cc1ccc(N2CCCCC2CCO)cc1C(F)(F)F (centres unmarked) [Example 36, 4-(2-(2-Hydroxyethyl)-piperidin-1-yl)-2-trifluoromethyl-benzonitrile]",27.7 nM
9,"COC[C@H]1CCCN1c1ccc(C#N)c(C(F)(F)F)c1 [Example 37, 4-(2(R)-(Methoxy-methyl)-pyrrolidin-1-yl)-2-trifluoromethyl-benzonitrile]",10.1 nM
10,"CCCCCN(CC)c1ccc(C#N)c(C(F)(F)F)c1 [Example 38, 4-(Ethyl-pentyl-amino)-2-trifluoromethyl-benzonitrile]",11.6 nM
11,"CCCCN(CCC)c1ccc(C#N)c(C(F)(F)F)c1 [Example 39, 4-(Butyl-propyl-amino)-2-trifluoromethyl-benzonitrile]",2 nM
12,"CC(C)N(C)c1ccc(C#N)c(C(F)(F)F)c1 [Example 40, 4-(Isopropyl-methyl-amino)-2-trifluoromethyl-benzonitrile]",0.99 nM
13,"CCCCCN(CCC)c1ccc(C#N)c(C(F)(F)F)c1 [Example 41, 4-(Pentyl-propyl-amino)-2-trifluoromethyl-benzonitrile]",9.39 nM
14,"N#Cc1ccc(N2CCCCC2CO)cc1C(F)(F)F (centres unmarked) [Example 42, 4-(2-Hydroxymethyl-piperidin-1-yl)-2-trifluoromethyl-benzonitrile]",15.3 nM
15,"CCCCN(CC)c1ccc(C#N)c(C(F)(F)F)c1 [Example 43, 4-(Butyl-ethyl-amino)-2-trifluoromethyl-benzonitrile]",7.58 nM
16,"CCCCN(CCCC)c1ccc(C#N)c(C(F)(F)F)c1 [Example 44, 4-(Dibutyl-amino)-2-trifluoromethyl-benzonitrile]",12.8 nM
17,"N#Cc1ccc(N2CCC[C@@H]2CO)cc1C(F)(F)F [Example 45, 4-(2(R)-(Hydroxy-methyl)-pyrrolidin-1-yl)-2-trifluoromethyl-benzonitrile]",22.7 nM
18,"CCCN(c1ccc(C#N)c(Cl)c1)C(C)C [Example 46, 2-Chloro-4-(isopropyl-propyl-amino)-benzonitrile]",9.79 nM
19,"CCN(CC)c1ccc(C#N)c(Cl)c1 [Example 47, 2-Chloro-4-(diethyl-amino)-benzonitrile]",2.98 nM
20,"CCN(c1ccc(C#N)c(Cl)c1)C(C)C [Example 48, 2-Chloro-4-(ethyl-isopropyl-amino)-benzonitrile]",19.7 nM
21,"CCCN(CCC)c1ccc(C#N)c(Cl)c1 [Example 49, 2-Chloro-4-(dipropyl-amino)-benzonitrile]",8.33 nM
22,"CC(C)N(C)c1ccc(C#N)c(C#N)c1 [Example 50, 4-(Isopropyl-methyl-amino)-phthalonitrile]",8.23 nM
23,"COC[C@H]1CCCN1c1ccc(C#N)c(C#N)c1 [Example 51, 4-(2-(R)-Methoxymethyl-pyrrolidin-1-yl)-phthalonitrile]",12.4 nM

# Reference: US20080045504A1, “Benzonitrile Derivatives to Treat Musculoskeletal Frailty” (PFIZER PRODUCTS INC., priority 2004, published 2008)
